Experimental findings from publication PMC5640845, “Screening of FDA-Approved Drugs for Inhibitors of Japanese Encephalitis Virus Infection” (Journal of Virology, 2017) are described below.

SMILES strings stand for the structures. Structures can show the parent of a compound that is named as a salt.

One data set concerns JEV. As to the kind of experiment: IFA of JEV infection with calcium inhibitors on Vero and Huh-7 cells. The format is cell-based, Japanese encephalitis virus.
The nature of data set [1]: Cytotoxicity (CC50) of compounds from the reconfirmation screen. The format is cell-based. The note with it: African green monkey, Vero cells; 50% cytotoxic concentration.
Data set [2] relates to JEV RVP. As to the kind of experiment: in vitro. The note with it: African green monkey, SI (selective index, CC50/IC50), Vero cells.
The subject of data set [3] is JEV RVP. In words: microbe, parasite or virus in culture. Conditions: Japanese encephalitis virus, Vero; for IC50: 24 h; for inhibition at 10 µM: read-out: level of inhibition in the primary screen.
In another data set the test system is ZIKV. In words: ZIKV infection of Vero cells (viral titer, RNA, IFA). The data set is classed as cell-based, Zika virus. Conditions: 48 h; for ZIKV plaque formation: 10 μM, Vero cells.
Data set [4] relates to JEV NS4B Q130 mutant viruses. The data set is classed as cell-based, Japanese encephalitis virus.
The test system of a further data set is YFV. The format is cell-based, yellow fever virus.
In data set [5] the test system is JEV strain AT31. Conditions: mouse, in vivo.
Data set [6] relates to JEV strain AT31. In words: qRT-PCR quantification of JEV RNA in cell lysates. Conditions: high-, middle- and low-dose groups, 24 h.
In a further data set the test system is DENV-2 replicon. In words: DENV-2 replicon luciferase assay in BHK-21 cells. The format is cell-based, dengue virus type 2. The note with it: 72 h. As for the experimental part: FIG 4 Broad-spectrum antiviral activity of the hit drugs against flaviviruses. […] The hit drugs were added to the cells at 1 h preinfection and were present throughout the experiment. At 48 h postinfection, the cell culture supernatants were subjected to a viral titer assay (top left), while cell lysates were assessed for viral RNA quantification (top right), and duplicate cells were analyzed by IFA for E protein (green) expression (bottom). Nuclei (blue) were stained with DAPI (4′,6-diamidino-2-phenylindole). (B and C) BHK-21 cells transfected with the WNV or DENV-2 replicon were treated with the hit drugs at the indicated concentrations, and luciferase activities were determined 48 h or 72 h later.
To ensure the effectiveness of the hit drugs in flavivirus replication, BHK-21 cells transfected with the JEV, WNV, or DENV-2 replicon were incubated with each drug at the concentrations indicated above, and the luciferase activities were determined 24 h, 48 h, or 72 h later, respectively.

Data set [7] deals with JEV RVP. Conditions: Vero cells.

In the case of `CC(=O)OCOC(=O)CN(CC(=O)OCOC(C)=O)c1ccccc1OCCOc1ccccc1N(CC(=O)OCOC(C)=O)CC(=O)OCOC(C)=O` [BAPTA-AM, 1,2-bis-(o-aminophenoxy)-ethane-N,N,N′,N′-tetraacetic acid, tetraacetoxymethyl ester], the “inhibition of JEV infection (IFA, prM-positive cells vs DMSO control)” value in the data set on JEV is “suppress JEV infection”.

For `COC(=O)C1=C(C)NC(C)=C(C(=O)OC2CCCN(Cc3ccccc3)C2)C1c1cccc([N+](=O)[O-])c1` (stereo not drawn) [Benidipine hydrochloride], the CC50 in data set [1] amounted to 55.9 µM. The selectivity ratio in the data set with JEV RVP [2] was found to be 15. The molecule also came in with an IC50 in the data set on JEV RVP [3] of 3.7 µM.

Regarding `Clc1ccc(CCC(Cn2ccnc2)Sc2c(Cl)cccc2Cl)cc1` (stereo not drawn) [Butoconazole Nitrate], the CC50 in data set [1] came out at 15.7 µM. Moreover, the selectivity ratio in the data set on JEV RVP [2] stood at 4. For the same molecule, in the data set on JEV RVP [3], the IC50 came out at 4 µM.

In [1], `COCCOC(=O)C1=C(C)NC(C)=C(C(=O)OC/C=C/c2ccccc2)C1c1cccc([N+](=O)[O-])c1` (stereo not drawn) [Cilnidipine] gave a CC50 of more than 100 µM. Further, the ZIKV plaque formation entry in the data set with ZIKV is reported as “no plaque formation”. The selectivity ratio with JEV RVP [2] was more than 28.6. In addition, in the data set with JEV RVP [3], the IC50 was 3.5 µM.

Regarding `CCOC(=O)C1=C(C)NC(C)=C(C(=O)OCC)C1c1ccccc1/C=C/C(=O)OC(C)(C)C` [Lacidipine], the CC50 in data set [1] stood at 14.1 µM. Besides, the selectivity ratio in the data set on JEV RVP [2] was determined as 4. In the data set on JEV RVP [3], this molecule showed an IC50 of 3.5 µM.

`COC(=O)C1=C(C)NC(C)=C(C(=O)OCCN2CCN(C(c3ccccc3)c3ccccc3)CC2)C1c1cccc([N+](=O)[O-])c1` (stereo not drawn) [Manidipine] gave a CC50 in data set [1] of more than 100 µM. The ZIKV plaque formation entry in the data set with ZIKV is listed as “no plaque formation”. Further, the inhibition at 5 µM with ZIKV (Zika virus, Vero, read-out: inhibition of ZIKV viral replication, translation, and viral yields) was 95%. Further, in data set [4], the “decrease of viral titer, Q130A mutant JEV” value is recorded as “higher than 2 log-unit”; the “decrease of viral titer, Q130K mutant JEV” value is “less than 2 log units”; the “decrease of viral titer, Q130R mutant JEV” value is given as “less than 2 log units”; the “reduction of viral yields, WT JEV” value is reported as “approximately 4 log units”. Also, in data set [4], the “resistance of Q130E mutant JEV to the drug” value is on record as “no resistance”. Besides, the “sensitivity of YFV to the drug” value with YFV is given as “resistance”. In the data set on JEV strain AT31 [5], the “effect on peripheral JEV infection (serum and spleen viral loads)” value is reported as “little effect”; the “histopathological changes in brain (meningitis, perivascular cuffing, vacuolar degeneration, glial nodules)” value is given as “remarkably alleviated”. In the data set on JEV strain AT31 [5] (ip, 25 mg/kg), the “abnormal behavior of treated mice” value was “little abnormal behavior”, the animals survived is recorded as 12 out of 15 and the mortality rate is 20%. Besides, the selectivity ratio with JEV RVP [2] was more than 62.5. In the data set with JEV RVP [3], this molecule yielded an IC50 of 1.6 µM. Also, the “attenuation of JEV RNA levels (inhibitory effect vs control)” value in the data set on JEV strain AT31 [6] is recorded as “at least 80%”.

In data set [1], `Clc1ccc(C(c2ccccc2Cl)C(Cl)Cl)cc1` (stereo not drawn) [Mitotane] returned a CC50 of 25.9 µM. Further, the selectivity ratio with JEV RVP [2] amounted to 3.9. Besides, the IC50 with JEV RVP [3] was found to be 6.6 µM.

For `Cc1c(O)cccc1C(=O)N[C@@H](CSc1ccccc1)[C@H](O)CN1C[C@H]2CCCC[C@H]2C[C@H]1C(=O)NC(C)(C)C` [Nelfinavir Mesylate], the CC50 in [1] stood at 27.1 µM. Also, the “level of DENV-2 replication (replicon luciferase)” value with DENV-2 replicon is “no effect at the concentrations tested”. For the same molecule, the selectivity ratio in the data set on JEV RVP [2] was found to be 16.8. This molecule also showed an IC50 in the data set with JEV RVP [3] of 1.6 µM.

With `CC[C@@H]1/C=C(\C)C[C@H](C)C[C@H](OC)[C@H]2O[C@@](O)(C(=O)C(=O)N3CCCC[C@H]3C(=O)O[C@H](/C(C)=C/[C@@H]3CC[C@H](Cl)[C@H](OC)C3)[C@H](C)[C@@H](O)CC1=O)[C@H](C)C[C@@H]2OC` [Pimecrolimus], the CC50 in data set [1] is more than 100 µM. Moreover, the “SI (selective index, CC50/IC50)” value in the data set on JEV RVP [7] is more than 32. In addition, the selectivity ratio in the data set on JEV RVP [2] was more than 32.3. The IC50 with JEV RVP [3] was 3.1 µM.

Take `COc1ccc(CCN(C)CCCC(C#N)(c2ccc(OC)c(OC)c2)C(C)C)cc1OC` (stereo not drawn) [Verapamil]: the “inhibition of JEV infection (IFA, prM-positive cells vs DMSO control)” value with JEV was “dose-dependent inhibition”.

On to `CCOC(=O)C1=C(C)NC(C)=C(C(=O)OC)C1c1cccc(Cl)c1Cl` (stereo not drawn) [felodipine], for which the inhibition at 10 µM in the data set on JEV RVP [3] worked out at 72%.

In the case of `Fc1ccc(C(c2ccc(F)cc2)N2CCN(C/C=C/c3ccccc3)CC2)cc1` [flunarizine dihydrochloride], the inhibition at 10 µM in the data set on JEV RVP [3] was more than 90%.

As for `COc1ccc(CN2CCN(C(c3ccc(F)cc3)c3ccc(F)cc3)CC2)c(OC)c1OC.Cl.Cl` [lomerizine hydrochloride], the “level of inhibition in the primary screen” value in the data set on JEV RVP [7] (10 μM compound) is reported as more than 90%.

For `COC(=O)C1=C(C)NC(C)=C(C(=O)OCCN(C)Cc2ccccc2)C1c1cccc([N+](=O)[O-])c1` (stereo not drawn) [nicardipine hydrochloride], the inhibition at 10 µM with JEV RVP [3] worked out at 66%.

With `COC(=O)C1=C(C)NC(C)=C(C(=O)OCC(C)C)C1c1ccccc1[N+](=O)[O-]` (stereo not drawn) [nisoldipine], the inhibition at 10 µM with JEV RVP [3] was found to be 75%.
